≈ marks a conversion by molar mass, not a printed value.
How the values were obtained:
Type in all cases: cell-based
[1] = test system: STAPHYLOCOCCUS AUREUS ATCC 6538P; assay: In vitro antibacterial activity, MIC, BHI agar dilution; details: S. aureus ATCC 6538P, 35-37° C., 20 to 24 hours, unit assumed
[2] = test system: STAPHYLOCOCCUS AUREUS A5177; assay: as above; details: S. aureus A5177, unit assumed
[3] = test system: STAPHYLOCOCCUS AUREUS A-5278; assay: as above; details: S. aureus A-5278, unit assumed
[4] = test system: STAPHYLOCOCCUS AUREUS CMX 642A; assay: as above; details: S. aureus CMX 642A, unit assumed
[5] = test system: STAPHYLOCOCCUS AUREUS NCTC10649M; assay: as above; details: S. aureus NCTC10649M, unit assumed
[6] = test system: STAPHYLOCOCCUS AUREUS CMX 553; assay: as above; details: S. aureus CMX 553, unit assumed
[7] = test system: STAPHYLOCOCCUS AUREUS 1775; assay: as above; details: S. aureus 1775, unit assumed
[8] = test system: STAPHYLOCOCCUS EPIDERMIDIS 3519; details: S. epidermidis 3519; BHI agar; unit assumed
EN[…] ATCC 8043 = assay: In vitro antibacterial activity, MIC, BHI agar dilution; details: E. faecium ATCC 8043, unit assumed
Outline: (§1)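 Agar dilution in BHI: plates inoculated with 1:100 dilutions of organisms (1:10 for Micrococcus and Streptococcus), incubated 20-24 h at 35-37° C, then inspected for the lowest inhibitory concentration against a drug-free growth control.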

M[…] ATCC 4698 = assay: as above; details: M. luteus ATCC 4698, unit assumed
Outline: as §1

M[…] ATCC 9341 = assay: as above; details: M. luteus ATCC 9341, unit assumed
Outline: as §1

STR[…] 508 = assay: as above; details: S. agalactiae CMX 508, unit assumed
Outline: as §1

[9] = test system: STREPTOCOCCUS BOVIS A-5169; assay: as above; details: S. bovis A-5169, unit assumed
[10] = test system: STREPTOCOCCUS PYOGENES EES61; assay: as above; details: S. pyogenes EES61, unit assumed
[11] = test system: STREPTOCOCCUS PYOGENES 930; assay: as above; details: S. pyogenes 930, unit assumed
[12] = test system: STREPTOCOCCUS PYOGENES PIU 2548; assay: as above; details: S. pyogenes PIU 2548, unit assumed
ESCHERICHIA COLI JUHL = details: E. coli JUHL; BHI agar; unit assumed
ESCHERICHIA COLI SS = assay: In vitro antibacterial activity, MIC, BHI agar dilution; details: E. coli SS, unit assumed
ESCHERICHIA COLI DC-2 = assay: as above; details: E. coli DC-2, unit assumed
ESCHERICHIA COLI H560 = assay: as above; details: E. coli H560, unit assumed
ESCHERICHIA COLI KNK 437 = details: E. coli KNK 437; BHI agar; unit assumed
[13] = test system: ENTEROBACTER AEROGENES ATCC 13048; assay: In vitro antibacterial activity, MIC, BHI agar dilution; details: E. aerogenes ATCC 13048, unit assumed
[14] = test system: KLEBSIELLA PNEUMONIAE ATCC 8045; assay: as above; details: K. pneumoniae ATCC 8045, unit assumed
[15] = test system: PROVIDENCIA STUARTII CMX 640; details: P. stuartii CMX 640; BHI agar; unit assumed
[16] = test system: PSEUDOMONAS AERUGINOSA BMH10; assay: In vitro antibacterial activity, MIC, BHI agar dilution; details: P. aeruginosa BMH10, unit assumed
[17] = test system: PSEUDOMONAS AERUGINOSA 5007; assay: as above; details: P. aeruginosa 5007, unit assumed
[18] = test system: PSEUDOMONAS AERUGINOSA K799/WT; assay: as above; details: P. aeruginosa K799/WT, unit assumed
[19] = test system: PSEUDOMONAS AERUGINOSA K799/61; assay: as above; details: P. aeruginosa K799/61, unit assumed
PSEUDOMONAS CEPACIA 296I = assay: as above; details: P. cepacia 296I, unit assumed
[20] = test system: ACINETOBACTER CALCOACETICUS CMX 669; assay: as above; details: A. calcoaceticus CMX 669, unit assumed
[21] = test system: PSEUDOMONAS AERUGINOSA DPHD-5263; assay: as above; details: P. aeruginosa DPHD-5263, unit assumed
[22] = test system: PSEUDOMONAS AERUGINOSA DPHD-2862; assay: as above; details: P. aeruginosa DPHD-2862, unit assumed
CANDIDA ALBICANS CCH 442 = assay: as above; details: C. albicans CCH 442, unit assumed
[23] = test system: MYCOBACTERIUM SMEGMATIS ATCC 114; assay: as above; details: M. smegmatis ATCC 114, unit assumed
H. Influenza Dill AMP R = assay: In vitro antibacterial activity against H. Influenza Dill AMP R, MIC; details: separate assay, unit assumed
Procedure: Representative compounds of the present invention were assayed in vitro for antibacterial activity as follows: Twelve petri dishes containing successive aqueous dilutions of the test compound mixed with 10 mL of sterilized Brain Heart Infusion (BHI) agar (Difco 0418-01-5) were prepared. Each plate was inoculated with 1:100 (or 1:10 for slow-growing strains, such as Micrococcus and Streptococcus) dilutions of up to 32 different microorganisms, using a Steers replicator block. The inoculated plates were incubated at 35-37° C. for 20 to 24 hours. In addition, a control plate, using BHI agar containing no test compound, was prepared and incubated at the beginning and end of each test.
After incubation, each plate was visually inspected. The minimum inhibitory concentration (MIC) was defmed as the lowest concentration of drug yielding no growth, a slight haze, or sparsely isolated colonies on the inoculum spot as compared to the growth control.
In a separate assay representative compounds of the invention were assayed in vitro for antibacterial activity against the H. Influenza Dill AMP R strain, according to the protocol described above.

Structure (SMILES)	MIC [1]	MIC [2]	MIC [3]	MIC [4]	MIC [5]	MIC [6]	MIC [7]	MIC [8]	MIC (EN[…] ATCC 8043)	MIC (M[…] ATCC 4698)	MIC (M[…] ATCC 9341)	MIC (STR[…] 508)	MIC [10]	MIC [11]	MIC [12]	MIC (ESCHERICHIA COLI JUHL)	MIC (ESCHERICHIA COLI SS)	MIC (ESCHERICHIA COLI DC-2)	MIC (ESCHERICHIA COLI H560)	MIC (ESCHERICHIA COLI KNK 437)	other results
CC[C@H]1OC(=O)[C@H](C)C(=O)[C@H](C)[C@@H](O[C@@H]2O[C@H](C)C[C@H](N(C)C)[C@H]2O)[C@](C)(OC)C[C@@H](C)C2=N[C@H](COCc3cccc(Br)c3)CN3C(=O)O[C@@]1(C)[C@H]3[C@H]2C [Example 105]	0.05 µg/mL (≈ 0.0597 µM)	0.05 µg/mL (≈ 0.0597 µM)	100 µg/mL (≈ 119 µM)	0.05 µg/mL (≈ 0.0597 µM)	0.02 µg/mL (≈ 0.0239 µM)	0.05 µg/mL (≈ 0.0597 µM)	100 µg/mL (≈ 119 µM)	0.05 µg/mL (≈ 0.0597 µM)	≤ 0.005 µg/mL	0.01 µg/mL (≈ 0.0119 µM)	≤ 0.005 µg/mL	≤ 0.005 µg/mL	≤ 0.005 µg/mL	25 µg/mL (≈ 29.9 µM)	0.05 µg/mL (≈ 0.0597 µM)	100 µg/mL (≈ 119 µM)	0.39 µg/mL (≈ 0.466 µM)	100 µg/mL (≈ 119 µM)	50 µg/mL (≈ 59.7 µM)	> 100 µg/mL	MIC [9]: ≤ 0.005 µg/mL; MIC [13]: > 100 µg/mL; MIC [14]: > 100 µg/mL; MIC [15]: > 100 µg/mL; MIC [16]: > 100 µg/mL; MIC [17]: > 100 µg/mL; MIC [18]: > 100 µg/mL; MIC [19]: 1.56 µg/mL (≈ 1.86 µM); MIC (PSEUDOMONAS CEPACIA 296I): 100 µg/mL (≈ 119 µM); MIC [20]: 100 µg/mL (≈ 119 µM); MIC [21]: > 100 µg/mL; MIC [22]: > 100 µg/mL; MIC (CANDIDA ALBICANS CCH 442): 100 µg/mL (≈ 119 µM); MIC [23]: 0.78 µg/mL (≈ 0.932 µM)
CC[C@H]1OC(=O)[C@H](C)C(=O)[C@H](C)[C@@H](O[C@@H]2O[C@H](C)C[C@H](N(C)C)[C@H]2O)[C@](C)(OC)C[C@@H](C)C2=NC3CN(CCc4ccccc4[N+](=O)[O-])CC3N3C(=O)O[C@@]1(C)[C@H]3[C@H]2C (stereo partly shown) [Example 119]	0.39 µg/mL (≈ 0.471 µM)	0.39 µg/mL (≈ 0.471 µM)	> 100 µg/mL	0.39 µg/mL (≈ 0.471 µM)	0.2 µg/mL (≈ 0.242 µM)	0.2 µg/mL (≈ 0.242 µM)	> 100 µg/mL	0.39 µg/mL (≈ 0.471 µM)	0.1 µg/mL (≈ 0.121 µM)	0.39 µg/mL (≈ 0.471 µM)	0.05 µg/mL (≈ 0.0604 µM)	0.02 µg/mL (≈ 0.0242 µM)	0.02 µg/mL (≈ 0.0242 µM)	> 100 µg/mL	0.78 µg/mL (≈ 0.942 µM)	100 µg/mL (≈ 121 µM)	0.78 µg/mL (≈ 0.942 µM)	> 100 µg/mL	> 100 µg/mL	> 100 µg/mL	MIC [9]: 0.02 µg/mL (≈ 0.0242 µM); MIC [13]: > 100 µg/mL; MIC [14]: > 100 µg/mL; MIC [15]: > 100 µg/mL; MIC [16]: > 100 µg/mL; MIC [17]: > 100 µg/mL; MIC [18]: > 100 µg/mL; MIC [19]: 0.78 µg/mL (≈ 0.942 µM); MIC (PSEUDOMONAS CEPACIA 296I): > 100 µg/mL; MIC [20]: 100 µg/mL (≈ 121 µM); MIC [21]: > 100 µg/mL; MIC [22]: > 100 µg/mL; MIC (CANDIDA ALBICANS CCH 442): > 100 µg/mL; MIC [23]: 0.78 µg/mL (≈ 0.942 µM)
CC[C@H]1OC(=O)[C@H](C)C(=O)[C@H](C)[C@@H](O[C@@H]2O[C@H](C)C[C@H](N(C)C)[C@H]2O)[C@](C)(OC)C[C@@H](C)C2=NCC(CNCc3ccccc3)N3C(=O)O[C@@]1(C)[C@H]3[C@H]2C (stereo partly shown) [Example 131]	0.39 µg/mL (≈ 0.515 µM)	0.39 µg/mL (≈ 0.515 µM)	> 100 µg/mL	0.39 µg/mL (≈ 0.515 µM)	0.39 µg/mL (≈ 0.515 µM)	0.39 µg/mL (≈ 0.515 µM)	> 100 µg/mL	0.39 µg/mL (≈ 0.515 µM)	0.1 µg/mL (≈ 0.132 µM)	0.2 µg/mL (≈ 0.264 µM)	0.02 µg/mL (≈ 0.0264 µM)	0.05 µg/mL (≈ 0.0661 µM)	0.02 µg/mL (≈ 0.0264 µM)	> 100 µg/mL	0.78 µg/mL (≈ 1.03 µM)	50 µg/mL (≈ 66.1 µM)	0.2 µg/mL (≈ 0.264 µM)	25 µg/mL (≈ 33 µM)	12.5 µg/mL (≈ 16.5 µM)	25 µg/mL (≈ 33 µM)	MIC [13]: 50 µg/mL (≈ 66.1 µM); MIC [15]: > 100 µg/mL; MIC [16]: > 100 µg/mL; MIC [17]: > 100 µg/mL; MIC [18]: 50 µg/mL (≈ 66.1 µM); MIC [19]: 0.78 µg/mL (≈ 1.03 µM); MIC (PSEUDOMONAS CEPACIA 296I): 25 µg/mL (≈ 33 µM); MIC [21]: > 100 µg/mL; MIC [22]: > 100 µg/mL; MIC (CANDIDA ALBICANS CCH 442): > 100 µg/mL; MIC [23]: 1.56 µg/mL (≈ 2.06 µM); MIC (H. Influenza Dill AMP R): 4 µg/mL (≈ 5.28 µM)

— patent US6274715A, “Tricyclic erythromycin derivatives” (priority 1997, dated 2001)
